Key:
cut carnation flowers [1] = test: Delaying senescence of cut carnation flowers: loading 24 h in CPAS solution, then 2 ppm ethylene for 24 h, visual inspection/photographs; type: in vivo, carnation (Dianthus caryophyllus); parameters: key: The result “−” means no ethylene antagonizing effect by visual inspection.; The result “+++” means high ethylene antagonizing effect by visual inspection.; The result “++++” means very high ethylene antagonizing effect by visual inspection; conditions: CPAS sodium salt 20-120 ppm, 36-55 cm stems
Source text: (§1) The ethylene antagonizing effect of composition described herein can be assessed by its effect of delaying senescence of cut plants, such as cut flowers. Some embodiments of the present invention are based on the use of the composition described herein to treat cut flowers for delaying senescence of the cut flowers.
(§2) Cut Flowers: Unless otherwise noted, carnation flowers grown in a greenhouse were harvested at the beginning of flower opening stage, early in the morning, and were immediately brought to the laboratory. The flowers were either processed immediately or stored in a cold room (4° C.) for 1 to 5 days as required.
(§3) Treatment Procedure: The flower stems were cut under tap water to the desired lengths (15 cm-55 cm). Four flowers for each treatment group (of two flowers per each groups) were loaded in a 20 mL aqueous treatment solution (or “loading solution”) for 24 hours. The treatment solution was placed in a 35 mL tube. The loading solutions of CPAS in buffers were prepared in distilled water, as described hereinafter. At the end of CPAS loading, the flowers were transferred to tap water for 1 to 4 days until the cut flowers open. The cut flowers were then exposed to 2 ppm ethylene for 24 hours. Control cut flowers were loaded in a control solution without CPAS in the same manner as the treated cut flowers, and were thereafter exposed to ethylene or air. At the end of ethylene exposure, the flowers were ventilated and left in tap water under controlled conditions (a temperature of 22° C., a relative humidity of 80%, and continuous fluorescent light) for additional 5 days for senescence assessment.

cut carnation flowers [2] = test: as above; type: in vivo, carnation (Dianthus caryophyllus); parameters: key to Results (ethylene antagonizing effect of CPAS by visual inspection): The result “−” means no ethylene antagonizing effect by visual inspection.; The result “+++” means high ethylene antagonizing effect by visual inspection.; The result “++++” means very high ethylene antagonizing effect by visual inspection
Source text: as §1, §2, §3

Q: Which “Results (efficacy of CPAS, ethylene antagonizing effect by visual inspection)” value (cut carnation flowers [1]; Glycine/NaOH buffer 20 mM pH 8.8) does the source give for O=C([O-])CCC1=CC1.[Na+] [CPAS, 3-cyclopropyl-1-enyl-propanoic acid salt] here?
A: Its value is “−”.

Q: What about the “Results (efficacy of CPAS, ethylene antagonizing effect by visual inspection)” value (cut carnation flowers [1]; H3BO3/NaOH buffer 20 mM pH 9.2) of the same compound?
A: Its value is “−”.

Q: What about the “Results (efficacy of CPAS, ethylene antagonizing effect by visual inspection)” value (cut carnation flowers [1]; HCl-TRIS buffer 20 mM pH 8.4) of the same compound?
A: The value was “−”.

Q: What about the “Results (efficacy of CPAS, ethylene antagonizing effect by visual inspection)” value (cut carnation flowers [1]; Isopropylamine 500-1000 ppm pH 11.0) of the same compound?
A: Its value is “−”.

Q: And the “Results (efficacy of CPAS, ethylene antagonizing effect by visual inspection)” value (cut carnation flowers [1]; K-Citrate/Citric Ac. buffer 20 mM pH 4.65)?
A: Its value is “−”.

Q: And the “Results (efficacy of CPAS, ethylene antagonizing effect by visual inspection)” value (cut carnation flowers [1]; K-Citrate/Citric Ac. buffer 20 mM pH 5.0 with 2,3-butanedione (500 ppm))?
A: Its value is “−”.

Q: What about the “Results (efficacy of CPAS, ethylene antagonizing effect by visual inspection)” value (cut carnation flowers [1]; K-Citrate/Citric Ac. buffer 20 mM pH 5.0 with EMK (5%)) of the same compound?
A: Its value is “−”.

Q: What about the “Results (efficacy of CPAS, ethylene antagonizing effect by visual inspection)” value (cut carnation flowers [1]; K-Citrate/Citric Ac. buffer 20 mM pH 5.0 with PVP (0.5%)) of the same compound?
A: The value was “−”.

Q: What about the “Results (efficacy of CPAS, ethylene antagonizing effect by visual inspection)” value (cut carnation flowers [1]; Na2B4O7/NaOH buffer 20 mM pH 9.4) of the same compound?
A: Its value is “−”.

Q: And the “Results (efficacy of CPAS, ethylene antagonizing effect by visual inspection)” value (cut carnation flowers [1]; Na2CO3/NaHCO3 buffer 40 mM pH 9.2-9.4 with Chloramphenicol 150 μM)?
A: The value was “++++”.

Q: And the “Results (efficacy of CPAS, ethylene antagonizing effect by visual inspection)” value (cut carnation flowers [1]; Na2CO3/NaHCO3 buffer 20-80 mM pH 9.2-9.4)?
A: The value was “++++”.

Q: And the “Results (efficacy of CPAS, ethylene antagonizing effect by visual inspection)” value (cut carnation flowers [1]; Na-Phosphate buffer 20 mM pH 6.0 + NaHCO3 60-80 mM, pH 7.4)?
A: The value was “+++”.

Q: What about the “Results (efficacy of CPAS, ethylene antagonizing effect by visual inspection)” value (cut carnation flowers [1]; Na-Phosphate buffer 20 mM pH 7.6) of the same compound?
A: Its value is “−”.

Q: What about the “Results (efficacy of CPAS, ethylene antagonizing effect by visual inspection)” value (cut carnation flowers [1]; Na-Phosphate/Citrate buffer 20 mM pH 6.0 + NaHCO3 60-80 mM, pH 7.2) of the same compound?
A: Its value is “+++”.

Q: What about the “Results (efficacy of CPAS, ethylene antagonizing effect by visual inspection)” value (cut carnation flowers [1]; NaHCO3 40 mM pH 8.2 with Chloramphenicol 50 μM) of the same compound?
A: The value was “+++”.

Q: What about the “Results (efficacy of CPAS, ethylene antagonizing effect by visual inspection)” value (cut carnation flowers [1]; NaHCO3 20-80 mM pH 8.2) of the same compound?
A: The value was “+++”.

Q: And the “senescence of cut flowers” value (cut carnation flowers [2]; 36 cm stems, 60 and 120 ppm CPAS in Na-phosphate buffer (20 mM) containing NaHCO3 (60 mM), pH 7.2)?
A: The value was “delayed senescence”.

Q: And the flower senescence (cut carnation flowers [2]; 60 or 120 ppm CPAS in 20 mM Na2CO3/NaHCO3 buffer pH 9.4, 36 cm stems)?
A: The flower senescence was “delayed flower senescence”.

Q: And the flower senescence (cut carnation flowers [2]; 120 ppm CPAS in 20 mM NaHCO3 pH 8.2, 36 cm stems)?
A: Its flower senescence is “delayed flower senescence”.

Q: What about the “Results (ethylene antagonizing effect of CPAS by visual inspection)” value (cut carnation flowers [2]; CPAS sodium salt 20-120 ppm in Na2CO3/NaHCO3 buffer 20 mM pH 9.2-9.4) of the same compound?
A: Its value is “++++”.

Q: What about the “Results (ethylene antagonizing effect of CPAS by visual inspection)” value (cut carnation flowers [2]; CPAS sodium salt 20-120 ppm in Na-Phosphate buffer 20 mM pH 7.6) of the same compound?
A: Its value is “−”.

Q: And the “Results (ethylene antagonizing effect of CPAS by visual inspection)” value (cut carnation flowers [2]; CPAS sodium salt 20-120 ppm in NaHCO3 20 mM pH 8.2)?
A: Its value is “+++”.

Q: What about the “senescence of cut flowers” value (cut carnation flowers [2]; CPAS sodium salt 20-160 ppm in Glycine/NaOH buffer 20 mM pH 8.8, 36 cm stems, loading 24 h) of the same compound?
A: Its value is “no effect”.

Q: What about the “senescence of cut flowers” value (cut carnation flowers [2]; CPAS sodium salt 20-160 ppm in H3BO3/NaOH buffer 20 mM pH 9.2, 36 cm stems, loading 24 h) of the same compound?
A: Its value is “no effect”.

Q: What about the “senescence of cut flowers” value (cut carnation flowers [2]; CPAS sodium salt 20-160 ppm in Na2CO3/NaHCO3 buffer 20 mM pH 9.4, 36 cm stems, loading 24 h) of the same compound?
A: Its value is “showed delayed senescence”.

Q: What about the “senescence of cut flowers” value (cut carnation flowers [2]; stem length 15 cm, 40, 60 and 120 ppm CPAS in 20 mM NaHCO3 pH 8.2) of the same compound?
A: The value was “showed delayed senescence”.

Q: And the “senescence of cut flowers” value (cut carnation flowers [2]; stem length 36 cm, 120 mM CPAS (so in the source) in 20 mM NaHCO3 pH 8.2)?
A: Its value is “showed delayed senescence”.

Q: And the “senescence of cut flowers” value (cut carnation flowers [2]; stem length 55 cm, 120 mM CPAS (so in the source) in 20 mM NaHCO3 pH 8.2)?
A: Its value is “No delayed senescence”.

Q: What about the “senescence of cut flowers” value (cut carnation flowers [2]; stem length 55 cm, 60 or 120 ppm CPAS in 60 mM Na2CO3/NaHCO3 buffer pH 9.4) of the same compound?
A: The value was “showed delayed senescence”.

Q: And the “senescence of cut flowers” value (cut carnation flowers [2]; stem length 55 cm, 120 ppm CPAS in 60 mM NaHCO3 pH 8.2)?
A: The value was “showed delayed senescence”.

From patent publication US20150223465A1, “COMPOSITION CONTAINING 3-CYCLOPROPYL-1-ENYL-PROPANOIC ACID SALTS AND A CARRIER” (Yissum Research Development Company of the Hebrew …, priority 2012, published 2015)
